Experimental data reported in ChEMBL document CHEMBL1201862, “PubChem BioAssay data set” (2004).
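Results reflect a 48-hour exposure of cells in 96-well plates to compound at five concentrations. Here, GI50 denotes the concentration required for 50% inhibition of growth.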 Active and inactive are the calls of the source. Cut-off read from the data, not from the text of the source: active = GI50 up to about 1.1 µM and inactive = higher. Where a SMILES comes first, the peptide text is derived from it.

Legend:
Assay in all cases: NCI anticancer screen, dose series, 48 h
CCRF-CEM = system: CCRF-CEM
HCT-15 = system: HCT-15
HL-60 = system: HL-60
HOP-92 = system: HOP-92
Hs-578T = system: Hs-578T
LOX IMVI = system: LOX IMVI
MDA-MB-231 = system: MDA-MB-231
NCI-H226 = system: NCI-H226
NCI/ADR-RES = system: NCI/ADR-RES
OVCAR-5 = system: OVCAR-5
OVCAR-8 = system: OVCAR-8
RXF 393 = system: RXF 393
SK-MEL-2 = system: SK-MEL-2
SK-MEL-5 = system: SK-MEL-5
SNB-19 = system: SNB-19
SR = system: SR
T47D = system: T47D
U-251 = system: U-251
UACC-62 = system: UACC-62
UO-31 = system: UO-31

| Structure (SMILES) | GI50 (CCRF-CEM) | GI50 (HCT-15) [µM] | GI50 (HL-60) | GI50 (HOP-92) | GI50 (Hs-578T) | GI50 (LOX IMVI) | GI50 (MDA-MB-231) | GI50 (NCI-H226) | GI50 (NCI/ADR-RES) | GI50 (OVCAR-5) | GI50 (OVCAR-8) | GI50 (RXF 393) | GI50 (SK-MEL-2) | GI50 (SK-MEL-5) | GI50 (SNB-19) | GI50 (SR) | GI50 (T47D) | GI50 (U-251) | GI50 (UACC-62) | GI50 (UO-31) |
| --- | --- | --- | --- | --- | --- | --- | --- | --- | --- | --- | --- | --- | --- | --- | --- | --- | --- | --- | --- | --- |
| CC(=O)c1c(C)cn(S(=O)(=O)NC(=O)Nc2nncs2)c1C | 23.3 µM (inactive) | > 100 | > 100 µM (inactive) | > 100 µM (inactive) | > 100 µM (inactive) | > 100 µM (inactive) | > 100 µM (inactive) | 49.2 µM (inactive) | > 100 µM (inactive) | > 100 µM (inactive) | > 100 µM (inactive) | > 100 µM (inactive) | > 100 µM (inactive) | > 100 µM (inactive) | > 100 µM (inactive) | > 100 µM (inactive) | > 100 µM (inactive) | > 100 µM (inactive) | > 100 µM (inactive) | 68.9 µM (inactive) |
| COC(=O)[C@@](NC(=O)OCc1ccccc1)([C@H](C)O)C(F)(F)F | 57.4 µM (inactive) | > 100 | > 100 µM (inactive) | > 100 µM (inactive) | > 100 µM (inactive) | > 100 µM (inactive) | > 100 µM (inactive) | > 100 µM (inactive) | > 100 µM (inactive) | > 100 µM (inactive) | > 100 µM (inactive) | 53.5 µM (inactive) | > 100 µM (inactive) | > 100 µM (inactive) | > 100 µM (inactive) | 50.1 µM (inactive) | > 100 µM (inactive) | > 100 µM (inactive) | > 100 µM (inactive) | > 100 µM (inactive) |
| COc1ccc(NC(=S)N/N=C(\c2ccccc2)c2ccccn2)cc1 | 0.01 µM (active) | < 0.01 | < 0.01 µM (active) | 0.224 µM (active) | 10.3 µM (inactive) | < 0.0152 µM (active) | < 0.01 µM (active) | 0.0753 µM (active) | < 0.0904 µM (active) | 0.0241 µM (active) | 0.0218 µM (active) | 0.603 µM (active) | 2.5 µM (inactive) | 0.0432 µM (active) | 2.84 µM (inactive) | < 0.01 µM (active) | < 0.0317 µM (active) | < 0.0198 µM (active) | 0.104 µM (active) | 0.132 µM (active) |
| COc1cc(/C=C\c2ccc(SC)cc2)cc(OC)c1OC | 0.0202 µM (active) | 0.0329 | < 0.0123 µM (active) | 0.498 µM (active) | 0.0132 µM (active) | < 0.0262 µM (active) | 0.0698 µM (active) | 0.979 µM (active) | 0.0395 µM (active) | 1.15 µM (inactive) | 0.0231 µM (active) | 0.0117 µM (active) | 0.0188 µM (active) | < 0.0152 µM (active) | 0.0247 µM (active) | < 0.01 µM (active) | 19.7 µM (inactive) | 0.0845 µM (active) | 0.0227 µM (active) | 0.104 µM (active) |
| Nc1ccccc1OCCCOc1ccccc1N | > 100 µM (inactive) | > 100 | > 100 µM (inactive) | > 100 µM (inactive) | > 100 µM (inactive) | > 100 µM (inactive) | > 100 µM (inactive) | > 100 µM (inactive) | > 100 µM (inactive) | > 100 µM (inactive) | > 100 µM (inactive) | > 100 µM (inactive) | > 100 µM (inactive) | 78.3 µM (inactive) | > 100 µM (inactive) | 88.5 µM (inactive) | > 100 µM (inactive) | > 100 µM (inactive) | > 100 µM (inactive) | > 100 µM (inactive) |
| CC(=O)NC(CS)C(=O)NC(CO)C(=O)NC(CO)C(=O)NC(Cc1c[nH]c2ccccc12)C(=O)N1CCCC1C(=O)NC(CO)C(=O)NC(Cc1c[nH]c2ccccc12)C(=O)NC(Cc1c[nH]cn1)C(=O)NC(CO)C(=O)NC(Cc1c[nH]c2ccccc12)C(=O)NCC(=O)NCC(=O)NC(CC(=O)O)C(=O)NC(CCC(N)=O)C(=O)NC(CCCCN)C(=O)NC(Cc1ccccc1)C(=O)NC(CCCNC(=N)N)C(=O)NC(CCCCN)C(N)=O (stereo not given) (Ac-CSSWPSWHSWGGDQKFRK-NH2; configuration not given here) | > 25 µM (inactive) | > 25 | > 25 µM (inactive) | > 25 µM (inactive) | > 25 µM (inactive) | > 25 µM (inactive) | > 25 µM (inactive) | > 25 µM (inactive) | > 25 µM (inactive) | > 25 µM (inactive) | > 25 µM (inactive) | > 25 µM (inactive) | > 25 µM (inactive) | > 25 µM (inactive) | > 25 µM (inactive) | > 25 µM (inactive) | > 25 µM (inactive) | > 25 µM (inactive) | > 25 µM (inactive) | > 25 µM (inactive) |
| CC(C)(CCc1nc2ccccc2[nH]1)C(=O)O | > 100 µM (inactive) | > 100 | > 100 µM (inactive) | > 100 µM (inactive) | > 100 µM (inactive) | > 100 µM (inactive) | > 100 µM (inactive) | > 100 µM (inactive) | > 100 µM (inactive) | > 100 µM (inactive) | > 100 µM (inactive) | > 100 µM (inactive) | > 100 µM (inactive) | > 100 µM (inactive) | > 100 µM (inactive) | > 100 µM (inactive) | > 100 µM (inactive) | > 100 µM (inactive) | > 100 µM (inactive) | > 100 µM (inactive) |
